27 molecules from patent publication US20020132853A1, “Capsaicin receptor ligands” (priority 2000, published 2002) can be followed below.

Like-named read-outs stand apart in the source and are kept apart here.

The test has as its target T1, human capsaicin receptor (Homo sapiens, UniProt Q8NER1).
T1 construct: expression consrtuct encoding the full length human capsaicin receptor; expressed in transfected cells
Briefly: Antagonist assay for Capsaicin receptor mediated calcium mobilization. In kind it is cell-based. Conditions: read-out: EC50 (the source's name). The protocol:
Calcium Mobilization Assay
Cells transfected with expression plasmids (as described in Example 10) and thereby expressing the human capsaicin receptor are seeded and grown to 70-90% confluency in FALCON black-walled, clear-bottomed 96-well plates (#3904, BECTON-DICKINSON, Franklin Lakes, N.J.) . The culture media are emptied from the 96 well plates and FLUO-3 AM calcium sensitive dye (Molecular Probes, Eugene, OR) is added to each well (dye solution: 1 mg FLUO-3 AM, 440 uL DMSO and 440 ul 20% pluronic acid in DMSO, diluted 1:4, 50 ul diluted solution per well). Plates are covered with aluminum foil and incubated at 37° C for 1-2 hours in an environment containing 5% CO2. After the incubation the dye is emptied from the plates, and the cells are washed once with Krebs-Ringer HEPES (KRH) buffer (25 mM HEPES, 5 mM KCl, 0.96 mM NaH2PO4, 1 MM MgSO4, 2 mM CaCl2, 5 mM glucose, 1 mM probenecid, pH 7.4), and resuspended in KRH buffer.
Agonist (e.g., olvanil, capsaicin, or RTX)-induced calcium mobilization is monitored using either FLUOROSKAN ASCENT (Labsystems, Franklin, Mass.) or FLIPR (fluorometric imaging plate reader system, Molecular Devices, Sunnyvale, Calif.) instruments. Similarly, varying concentrations of the antagonists ruthenium red or capsazepine are added to cells concurrently with agonist (e.g., 25-50 nM capsaicin). For agonist-induced calcium responses, data obtained between 30 and 60 seconds after agonist application are used to generate the EC50 values. […] software (Synergy Software, Reading, Pa.) was utilized to fit the data to the equation: […]
to determine the EC50 for the response. In this equation, y is the maximum fluorescence signal, x is the concentration of the agonist or antagonist, a is the Emax, b corresponds to the EC50 or IC50 value, and finally, c is the Hill coefficient.
Assay for Determination of Capsaicin Receptor Antagonist Effects
In order to measure the ability of a test compound to antagonize (inhibit) the response of cells expressing capsaicin receptors to capsaicin or other vanilloid agonist, the EC50 of capsaicin is first determined.
An additional 20 ul of KRH buffer and 1 ul DMSO is added to each well of cells, prepared as described above. 100 ul capsaicin in KRH buffer is automatically transferred by the FLIPR instrument to each well.
Test compounds are dissolved in DMSO, diluted in 20 ul KRH buffer so that the final concentration of test compounds in the assay well is between 1 uM and 5 uM, and added to cells prepared as described above. The 96 well plates containing prepared cells and test compounds are incubated in the dark, at room temperature for 0.5-6 hours. It is important that the incubation not continue beyond 6 hours. Just prior to determining the fluorescence response, 100 ul capsaicin in KRH buffer at twice the EC50 concentration determined from the concentration response curve is automatically added by the FLIPR instrument to each well of the 96 well plate for a final sample volume of 200 ul and a final capsaicin concentration equal to the EC50. The final concentration of test compounds in the assay wells is between 1 uM and 5 uM. […] Antagonists of the capsaicin receptor decrease this response by about 20%, preferably by about 50%, and most preferably by at least 80% as compared to matched control. The concentration of antagonist required to provide a 50% decrease is the EC50 for the antagonist (also referred to as the IC50).
(Calcium flux is commonly read through the fluorescence of an indicator in the cells.)

T1 sequence (Q8NER1 whole entry): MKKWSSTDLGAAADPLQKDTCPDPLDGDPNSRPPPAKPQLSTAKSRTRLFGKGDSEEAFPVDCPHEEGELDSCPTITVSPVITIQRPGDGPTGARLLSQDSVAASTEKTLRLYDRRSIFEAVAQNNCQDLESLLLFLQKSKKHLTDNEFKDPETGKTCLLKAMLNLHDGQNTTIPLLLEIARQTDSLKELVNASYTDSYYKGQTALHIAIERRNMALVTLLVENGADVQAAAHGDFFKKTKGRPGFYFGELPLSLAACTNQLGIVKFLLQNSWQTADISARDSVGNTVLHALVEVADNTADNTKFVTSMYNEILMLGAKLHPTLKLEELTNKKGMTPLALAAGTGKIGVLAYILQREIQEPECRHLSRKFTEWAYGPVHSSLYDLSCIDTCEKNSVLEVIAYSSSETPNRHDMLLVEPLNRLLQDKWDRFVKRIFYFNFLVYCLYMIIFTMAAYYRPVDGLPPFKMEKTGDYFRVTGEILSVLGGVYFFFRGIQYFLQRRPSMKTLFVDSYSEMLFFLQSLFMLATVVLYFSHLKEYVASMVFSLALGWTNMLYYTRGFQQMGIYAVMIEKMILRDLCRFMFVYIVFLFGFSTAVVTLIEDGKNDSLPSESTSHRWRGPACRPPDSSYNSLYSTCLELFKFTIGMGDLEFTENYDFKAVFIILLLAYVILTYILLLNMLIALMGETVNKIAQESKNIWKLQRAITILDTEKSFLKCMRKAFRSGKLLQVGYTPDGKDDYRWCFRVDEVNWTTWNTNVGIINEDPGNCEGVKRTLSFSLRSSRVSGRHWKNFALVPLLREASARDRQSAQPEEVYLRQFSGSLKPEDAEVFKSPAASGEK

With `C[C@@H]1CN(c2ncccc2Cl)CCN1C(=O)Nc1ccc(C(F)(F)F)cn1` [Compound 94, (2R)-4-(3-chloropyridin-2-yl)-2-methyl-N-[5-(trifluoromethyl)pyridin-2-yl]piperazine-1-carboxamide], the IC50 (Table IV) is less than 1 µM.
Same read-out and setting: next, `C[C@@H]1CN(c2nccnc2Cl)CCN1C(=O)Nc1ccc(C(C)(C)C)cc1` [Compound 95, (2R)-N-(4-tert-butylpghenyl)-4-(3-chloropyrazin-2-yl)-2-methylpiperazine-1-carboxamide]: less than 1 µM.
The same measure, in the same setting: for `CC(C)c1ccc(NC(=O)N2CCN(c3nccnc3Cl)C[C@H]2C)cc1` [Compound 96, (2R)-4-(3-chloropyrazin-2-yl)-N-(4-isopropylphenyl)-2-methylpiperazine-1-carboxamide] the value was less than 1 µM; for `C[C@@H]1CN(c2ncccc2Cl)CCN1C(=O)Nc1ccc(C(F)(F)F)nc1` [Compound 98, (2R)-4-(3-chloropyridin-2-yl)-2-methyl-N-[6-(trifluoromethyl)pyridin-3-yl]piperazine-1-carboxamide], less than 1 µM.
The same measure, in the same setting: for `C[C@@H]1CN(c2ncccc2Cl)CCN1C(=O)NC1CCC(C(C)(C)C)CC1` (stereo partly drawn) [Compound 99, (2R)-N-(4-tert-butylcyclohexyl)-4-(3-chloropyridin-2-yl)-2-methylpiperazine-1-carboxamide] the value was less than 1 µM.
Regarding `CC(C)C1CCC(NC(=O)N2CCN(c3ncccc3Cl)C[C@H]2C)CC1` (stereo partly drawn) [Compound 100, (2R)-4-(3-chloropyridin-2-yl)-N-(4-isopropylcyclohexyl)-2-methylpiperazine-1-carboxamide], where the note is “Table IV”, the IC50 is less than 1 µM.
The same measure, in the same setting: next, `CC(C)C1CCC(NC(=O)N2CCN(c3ncccc3C(F)(F)F)C[C@H]2C)CC1` (stereo partly drawn) [Compound 101, (2R)-N-(4-isopropylcyclohexyl)-2-methyl-4-[3-(trifluoromethyl)pyridin-2-yl]piperazine-1-carboxamide]: less than 1 µM.
Regarding `O=C(Nc1ccc(Cl)cc1)N1CCN(c2cc(C(F)(F)F)ccn2)CC1` [Compound 107, N-(4-chlorophenyl)-4-[4-(trifluoromethyl)pyridin-2-yl]piperazine-1-carboxamide], the IC50 (Table V) is less than 1 µM.
Same read-out and setting: for `O=C(Nc1ccc(OC(F)(F)F)cc1)N1CCN(c2cc(C(F)(F)F)ccn2)CC1` [Compound 108, N-[4-*trifluoromethoxy)phenyl]-4-[4-(trifluoromethyl)pyririn-2-yl]piperazine-1-carboxamide] the value was less than 1 µM.
For `O=C(Nc1cccc(Cl)c1)N1CCN(c2cc(C(F)(F)F)ccn2)CC1` [Compound 109, N-(3-chlorophenyl)-4-[4-(trifluoromethyl)pyridin-2-yl]piperazine-1-carboxamide], for the setting “Table V”, the IC50 is less than 1 µM.
On the same count and under the same terms, for `O=C(Nc1cccc(C(F)(F)F)c1)N1CCN(c2ncccc2C(F)(F)F)CC1` [Compound 110, N-[3-(trifluoromethyl)phenyl]-4-[3-(trifluoromethyl)pyridin-2-yl]piperazine-1-carboxamide] the value was less than 1 µM; for `COc1cccc(NC(=O)N2CCN(c3ncccc3C(F)(F)F)CC2)c1` [Compound 113, N-(3-methoxyphenyl)-4-[3-(trifluoromethyl)pyridin-2-yl]piperazine-1-carboxamide], less than 1 µM; for `O=C(Nc1cccc([N+](=O)[O-])c1)N1CCN(c2ncccc2C(F)(F)F)CC1` [Compound 116, N-(3-nitrophenyl)-4-[3-(trifluoromethyl)pyridin-2-yl]piperazine-1-carboxamide], less than 1 µM.
Still for that read-out and setting: for `O=C(Nc1ccc(OC(F)(F)F)cc1)N1CCN(c2ncccc2C(F)(F)F)CC1` [Compound 117, N-[4-(trifluoromethoxy)phenyl]-4-[3-(trifluoromethyl)pyridin-2-yl]piperazine-1-carboxamide] the value was less than 1 µM.
On to `O=C(Nc1ccc(Cl)c([N+](=O)[O-])c1)N1CCN(c2ncccc2C(F)(F)F)CC1` [Compound 118, N-(4-chloro-3-nitrophenyl)-4-[3-(trifluoromethyl)pyridin-2-yl]piperazine-1-carboxamide], for which the IC50 (Table V) is less than 1 µM.
The same measure, in the same setting: next, `O=C(Nc1cc(Cl)cc(Cl)c1)N1CCN(c2ncccc2C(F)(F)F)CC1` [Compound 119, N-(3,5-dichlorophenyl)-4-[3-(trifluoromethyl)pyridin-2-yl]piperazine-1-carboxamide]: less than 1 µM; `C[C@@H]1CN(c2ncccc2Cl)CCN1C(=O)Nc1ccc(C(C#N)c2ccccc2)cc1` (stereo partly drawn) [Compound 120, (2R)-4-(3-chloropyridin-2-yl)-N-[4-[cyano(phenyl)methyl]phenyl]-2-methylpiperazine-1-carboxamide]: less than 1 µM.
On to `Cc1cc(NC(=O)N2CCN(c3ncccc3Cl)C[C@H]2C)ccc1C(F)(F)F` [Compound 121, (2R)-4-(3-chloropyridin-2-yl)-2-methyl-N-[3-methyl-4-(trifluoromethyl)phenyl]piperazine-1-carboxamide], for which the IC50 (Table V) is less than 1 µM.
Same read-out and setting: next, `Cc1cc(NC(=O)N2CCN(c3ncccc3F)C[C@H]2C)ccc1C(F)(F)F` [Compound 122, (2R)-4-(3-fluoropyridin-2-yl)-2-methyl-N-[3-methyl-4-(trifluoromethyl)phenyl]piperazine-1-carboxamide]: less than 1 µM; `C[C@@H]1CN(c2ncccc2N(S(C)(=O)=O)S(C)(=O)=O)CCN1C(=O)Nc1ccc(C(C)(C)C)cc1` [Compound 123, (2R)-4-{3-[bis(methylsulfonyl)amino]pyridin-2-yl}-N-(4-tert-butylphenyl)-2-methylpiperazine-1-carboxamide]: less than 1 µM.
Same read-out and setting: next, `Cc1cc(NC(=O)N2CCN(c3ncccc3C(F)(F)F)C[C@H]2C)ccc1C(F)(F)F` [Compound 124, (2R)-2-methyl-N-[3-methyl-4-(trifluoromethyl)phenyl]-4-[3-(trifluoromethyl)pyridin-2-yl]piperazine-1-carboxamide]: less than 1 µM; `C=C(c1ccc(NC(=O)N2CCN(c3ncccc3Cl)C[C@H]2C)cc1)C(F)(F)F` [Compound 125, (2R)-4-(3-chloropyridin-2-yl)-2-methyl-N-{4-[1-(trifluoromethyl)vinyl]phenyl]piperazine-1-carboxamide]: less than 1 µM.
Regarding `C=C(c1ccc(NC(=O)N2CCN(c3ncccc3C(F)(F)F)C[C@H]2C)cc1)C(F)(F)F` [Compound 126, (2R)-2-methyl-4-[3-(trifluoromethyl)pyridin-2-yl]-N-{4-[1-(trifluoromethyl)vinyl]phenyl}piperazine-1-carboxamide], the IC50 (Table V) is less than 1 µM.
Regarding `C=C(c1ccc(NC(=O)N2CCN(c3ncccc3F)C[C@H]2C)cc1)C(F)(F)F` [Compound 127, (2R)-4-(3-fluoropyridin-2-yl)-2-methyl-N-{4-[1-(trifluoromethyl)vinyl]phenyl}piperazine-1-carboxamide], the IC50 (Table V) is less than 1 µM.
Same read-out and setting: for `CCC(C)c1ccc(NC(=O)N2CCN(c3ncccc3F)C[C@H]2C)cc1` (stereo partly drawn) [Compound 128, (2R)-N-(4-sec-butylphenyl)-4-(3-fluoropyridin-2-yl)-2-methylpiperazine-1-carboxamide] the value was less than 1 µM; for `CC(c1ccc(NC(=O)N2CCN(c3ncccc3C(F)(F)F)C[C@H]2C)cc1)C(F)(F)F` (stereo partly drawn) [Compound 129, (2R)-2-methyl-N-[4-(2,2,2-trifluoro-1-methylethyl)phenyl]-4-[3-(trifluoromethyl)pyridin-2-yl]piperazine-1-carboxamide], less than 1 µM.
Same read-out and setting: for `CC(c1ccc(NC(=O)N2CCN(c3ncccc3F)C[C@H]2C)cc1)C(F)(F)F` (stereo partly drawn) [Compound 130, (2R)-4-(3-fluoropyridin-2-yl)-2-methyl-N-[4-(2,2,2-trifluoro-1-methylethyl)phenyl]piperazine-1-carboxamide] the value was less than 1 µM.
